Where “and” joins values, the source holds several entries; their conditions need not be identical. Equal values may be shown once.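 96-well plates; 48 h exposure; 5 concentrations. Endpoints by linear interpolation between flanking doses. Not reached: highest tested concentration assigned. Abbreviation: GI50, concentration required for 50% inhibition of growth. TGI is the concentration that stops growth completely.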
Tests used:
Test in all cases: NCI tumour cell line growth inhibition, 48 h
786-0 renal = test system: 786-0 renal
CAKI-1 renal = test system: CAKI-1 renal
CCRF-CEM leukemia = test system: CCRF-CEM leukemia
HCT-116 colon = test system: HCT-116 colon
MDA-MB-231 breast = test system: MDA-MB-231 breast
SK-OV-3 ovarian = test system: SK-OV-3 ovarian
SN12C renal = test system: SN12C renal
SNB-75 CNS = test system: SNB-75 CNS
SW-620 colon = test system: SW-620 colon
T-47D breast = test system: T-47D breast

SMILES	TGI (786-0 renal)	TGI (CAKI-1 renal)	TGI (CCRF-CEM leukemia)	TGI (HCT-116 colon)	TGI (MDA-MB-231 breast)	TGI (SK-OV-3 ovarian)	TGI (SN12C renal)	TGI (SNB-75 CNS)	TGI (SW-620 colon)	TGI (T-47D breast)	GI50 (786-0 renal)	GI50 (CAKI-1 renal)	GI50 (CCRF-CEM leukemia)	GI50 (HCT-116 colon)	GI50 (MDA-MB-231 breast)	GI50 (SK-OV-3 ovarian)	GI50 (SN12C renal)	GI50 (SNB-75 CNS)	GI50 (SW-620 colon)	GI50 (T-47D breast)
COC1C(OC(=O)c2ccc(C)[nH]2)C(O)C(Oc2ccc3c(O)c(NC(=O)c4ccc(O)c(CC=C(C)C)c4)c(=O)oc3c2Cl)OC1(C)C (stereo not drawn)	31.9 µM	36.2 µM	58.9 µM	33.1 µM	49.4 µM	54.6 µM	53.2 µM	72.9 µM	38 µM	36.5 µM										
O=c1c(I)c[nH]cc1I	> 100 µM	> 100 µM	> 100 µM	> 100 µM	> 100 µM	> 100 µM	> 100 µM	> 100 µM	> 100 µM	> 100 µM	> 100 µM	> 100 µM	> 100 µM	> 100 µM	> 100 µM	> 100 µM	> 100 µM	> 100 µM	> 100 µM	> 100 µM
Cc1cc(NC(=O)NCc2ccc(N3C(N)=NC(N)=NC3(C)C)cc2)ccc1S(=O)(=O)F	> 100 µM	> 100 µM	> 100 µM	> 100 µM	> 100 µM	> 100 µM	> 100 µM	> 100 µM	> 100 µM	> 100 µM	5.21 µM	> 49.3 µM	0.815 µM	0.429 µM	> 62.2 µM	36.6 µM	0.833 µM	> 32.3 µM	0.491 µM	15.7 µM
CC(C)(Oc1ccc(-c2cccc3ccccc23)cc1)C(=O)O	> 100 µM	> 100 µM	> 100 µM	> 100 µM	> 100 µM	> 100 µM	> 100 µM	> 100 µM	> 100 µM	> 100 µM										
Nc1nc(SCc2ccccc2CCl)c2[nH]cnc2n1	40.3 µM	44 µM	> 100 µM	33.8 µM	38 µM	32.2 µM	71.7 µM	32.7 µM	29.2 µM	52.3 µM	17.6 µM	15.6 µM	28.5 µM	16.2 µM	14.2 µM	16 µM	21.2 µM	15.3 µM	14.8 µM	15.6 µM
CCN(CC)c1ccc(/C=N/NC(=O)Cc2ccc(Nc3ccnc(C(F)(F)F)c3)cc2)c(O)c1	> 100 µM	> 25 µM	> 100 µM	> 100 µM	> 100 µM	> 100 µM	> 100 µM	> 61.1 µM	> 100 µM	> 25.1 µM	0.626 µM	0.413 µM	0.256 µM	0.46 µM	0.842 µM	0.359 µM	1.15 µM	2.12 µM	0.729 µM	0.517 µM
O=c1[nH]c2cc(Cl)ccc2nc1/C(=N\Nc1ccccc1)C(O)c1ccc2c(c1)OCO2 (stereo not drawn)	> 100 µM	> 100 µM	> 100 µM	> 100 µM	> 100 µM	> 100 µM	> 100 µM	> 100 µM	> 100 µM	> 100 µM										
NNc1c(C(N)=O)c2c(N)ncnc2n1C1OC(CO)C(O)C1O (stereo not drawn)	0.405 µM and 1.87 µM	0.826 µM and 0.909 µM	< 0.0483 µM and 0.12 µM		0.491 µM and 2.23 µM	0.413 µM and 0.361 µM	0.174 µM and 0.58 µM	1.09 µM and 0.448 µM	0.992 µM and 0.241 µM	0.104 µM and 0.14 µM	0.0354 µM and 0.107 µM	0.0171 µM and < 0.0167 µM	< 0.0146 µM	< 0.01 µM	0.086 µM	< 0.0137 µM and 0.0273 µM	0.019 µM and 0.0443 µM	0.106 µM	< 0.0124 µM	
Cc1cc(N2CCC(N3CCCC3)CC2)nc(/N=C(\N)Nc2ccc(Cl)c(Cl)c2)n1	3.41 µM	2.68 µM	> 100 µM	3.63 µM	3.64 µM	3.49 µM	10.9 µM	3.12 µM	3.24 µM	3.59 µM	1.82 µM	1.29 µM	3.28 µM	1.93 µM	1.67 µM	1.88 µM	2.7 µM	1.58 µM	1.57 µM	1.92 µM
CN1C2C=CC(=O)C1C1C(=O)N(c3ccccc3)C(=O)C12 (stereo not drawn)	15.4 µM	4.27 µM	> 100 µM	16.2 µM	37.8 µM	> 100 µM	31.9 µM	29.2 µM	10.7 µM	22.6 µM	3.57 µM	1.66 µM	7.51 µM	3.57 µM	15.3 µM	26.7 µM	5.09 µM	13 µM	3.09 µM	5.65 µM
COc1ccc(-c2nsc3c2NC(=O)CC3c2ccsc2)cc1 (stereo not drawn)	> 100 µM	> 100 µM	> 100 µM	> 100 µM	> 100 µM	13.7 µM	> 100 µM	> 100 µM	> 100 µM	65.6 µM	1.25 µM	0.298 µM	0.268 µM	0.126 µM	1.26 µM	0.313 µM	0.83 µM	0.119 µM	0.0684 µM	0.454 µM
CCCCCCCCCCCCCCCCCc1nc(Cl)nc(Cl)c1Cl	> 100 µM	> 100 µM	> 100 µM	> 100 µM	> 100 µM	> 100 µM	> 100 µM	> 100 µM	> 100 µM	> 100 µM										
CCn1c(-c2nonc2N)nc2ccccc21	> 25 µM	> 25 µM	> 25 µM	> 25 µM	> 25 µM	> 25 µM	> 25 µM	> 25 µM	> 25 µM	> 25 µM	> 25 µM	> 25 µM	> 25 µM	> 25 µM	> 25 µM	> 25 µM	> 25 µM	> 25 µM	> 25 µM	> 25 µM
Nc1ccc(CC[C@H]2CCC/C=C/[C@@H]3C[C@H](O)C[C@H]3[C@H](O)/C=C/C(=O)O2)cc1	0.057 µM	1.47 µM	> 64.9 µM	0.114 µM	0.0421 µM	> 100 µM	> 100 µM	> 100 µM	0.203 µM	> 100 µM	0.0239 µM	0.0349 µM	0.0437 µM	0.0314 µM	0.0212 µM	0.0483 µM	0.0639 µM	0.0189 µM	0.0329 µM	0.0751 µM

From PubChem BioAssay (NCI)
